These results are taken from patent US11236055B2 (Venenum Biodesign, LLC, priority 2016, dated 2022).

Broadly, the EC50 is the concentration that produces a half-maximal response.

The target in experiment [1] is T1, mouse TGR5 receptor (Mus musculus, UniProt Q80SS6).
T1 construct: expressed in transfected cells; host or cells: HEK293-EBNA (293 c18, ATCC CRL10852), Hygromycin B selection
T1 sequence (Q80SS6 1-329): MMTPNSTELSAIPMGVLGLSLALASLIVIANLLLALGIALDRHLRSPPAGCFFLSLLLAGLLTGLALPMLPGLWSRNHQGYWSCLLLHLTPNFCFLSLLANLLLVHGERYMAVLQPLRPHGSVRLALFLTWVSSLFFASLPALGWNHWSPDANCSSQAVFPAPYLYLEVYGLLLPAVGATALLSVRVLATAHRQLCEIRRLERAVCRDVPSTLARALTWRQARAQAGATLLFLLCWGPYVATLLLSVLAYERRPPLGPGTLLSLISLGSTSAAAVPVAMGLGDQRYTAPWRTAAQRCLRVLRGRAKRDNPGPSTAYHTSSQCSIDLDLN
In words: Mouse TGR5 cAMP production assay (HTRF, Cisbio cAMP HiRange). The format is cell-based. The settings on record: HEK293-EBNA cells overexpressing mouse TGR5, HTRF cAMP HiRange; coded A-D. A digest of the protocol:
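cAMP read by HTRF competition after 1 h room-temperature compound exposure of mouse TGR5-overexpressing HEK293-EBNA cells. Cells were suspended in serum-free DMEM containing 500 μM IBMX; compounds ran as 12-point half-log dilutions in duplicate; EC50 derived.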

Experiment [2] has as its target T2, human TGR5 receptor (Homo sapiens, UniProt Q8TDU6).
T2 construct: host or cells: CHO-K1 (hTGR5-CHO cells)
T2 sequence (Q8TDU6 1-330): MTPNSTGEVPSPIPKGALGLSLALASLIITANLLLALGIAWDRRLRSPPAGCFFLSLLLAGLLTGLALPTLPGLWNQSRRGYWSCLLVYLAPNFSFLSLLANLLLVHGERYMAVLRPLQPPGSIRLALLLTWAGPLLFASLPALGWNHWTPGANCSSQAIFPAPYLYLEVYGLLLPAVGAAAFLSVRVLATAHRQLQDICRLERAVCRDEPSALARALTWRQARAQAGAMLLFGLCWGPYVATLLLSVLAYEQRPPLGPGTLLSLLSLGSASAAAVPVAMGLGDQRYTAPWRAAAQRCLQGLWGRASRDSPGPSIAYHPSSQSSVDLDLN
In words: Human TGR5 cAMP production assay. It is filed as cell-based. To be noted: human TGR5, luminescent cAMP assay; coded A-D; read-out: Human TGR5 Lum. cAMP Activity (EC50). In a few lines:
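CHO-K1 cells stably expressing human TGR5, with IBMX and cAMP antibody, were exposed to half-log serially diluted compound for 1 h at room temperature. cAMP measured by enzyme-fragment complementation luminescence (XS+ kit) after overnight incubation; EC50 values reported.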

Regarding `Cc1ccc(S(=O)(=O)NC(CCCCC#N)c2cccc(-c3ccncc3C)c2)nc1` (stereo not drawn) [Compound 35B, N-(5-cyano-1-(3-(3-methylpyridin-4-yl)phenyl)pentyl)-5-methylpyridine-2-sulfonamide], the half-maximal effective concentration (EC50) in experiment [1] and in experiment [2] was 1 to 30 µM throughout.
Take `COc1cnccc1-c1cccc(C(C)(C)NS(=O)(=O)c2ccccc2N)c1` [Compound 10, 2-amino-N-(2-(3-(3-methoxypyridin-4-yl)phenyl)propan-2-yl)benzenesulfonamide]: the half-maximal effective concentration (EC50) in experiment [1] and in experiment [2] was 0.1 to 0.999 µM in each case.
`Cc1cnccc1-c1cccc([C@H](C)N(CCOCC(=O)O)S(=O)(=O)c2cccc(Cl)c2C)c1` [Compound 16AM, (S)-2-(2-(3-chloro-2-methyl-N-(1-(3-(3-methylpyridin-4-yl)phenyl)ethyl)phenylsulfonamido)ethoxy)acetic acid]: the 50% effective concentration (EC50) in experiment [1] and in experiment [2] was 0.1 to 0.999 µM each time.
Consider `COc1cnccc1-c1cccc(C(C)(C)NS(=O)(=O)c2cc(C(F)(F)F)ccc2C(F)(F)F)c1` [Compound 2BK], for which the EC50 in experiment [1] lay in the range of 1 to 30 µM; in experiment [2], 0.1 to 0.999 µM.
On to `Cc1cnccc1-c1cccc(C(C)(C)N(CCCC(=O)NCCNC(=O)OC(C)(C)C)S(=O)(=O)c2cccc(Cl)c2C)c1` [Compound 20AV, tert-butyl (2-(4-(3-chloro-2-methyl-N-(2-(3-(3-methylpyridin-4-yl)phenyl)propan-2-yl)phenylsulfonamido)butanamido)ethyl)carbamate], for which the EC50 in experiment [1] is 0.1 to 0.999 µM; in experiment [2], below 0.1 µM.
With `Cc1c(Cl)cccc1S(=O)(=O)N(CCCC(=O)NCCS(=O)(=O)O)[C@@H](C)c1cccc(-c2ccnnc2)c1` [Compound 20BO, (S)-2-(4-(3-chloro-2-methyl-N-(1-(3-(pyridazin-4-yl)phenyl)ethyl)phenylsulfonamido)butanamido)ethanesulfonic acid], the half-maximal effective concentration (EC50) in experiment [1] was above 30 µM; in experiment [2], 0.1 to 0.999 µM.
Take `Cc1cnccc1-c1cccc(C2CN(CCCC(=O)NCCS(=O)(=O)O)CCN2S(=O)(=O)c2cccc(Cl)c2C)c1` (stereo not drawn) [Compound 53AA, 2-(4-(4-((3-chloro-2-methylphenyl)sulfonyl)-3-(3-(3-methylpyridin-4-yl)phenyl)piperazin-1-yl)butanamido)ethanesulfonic acid]: the values for the 50% effective concentration (EC50) in experiment [1] and in experiment [2] were below 0.1 µM and 0.1 to 0.999 µM, respectively.
Take `Cc1cnccc1-c1cccc([C@H](C)N(CCCC(=O)NCCNS(=O)(=O)NOC(C)(C)C)S(=O)(=O)c2cccc(Cl)c2C)c1` [Compound 37A]: the EC50 in experiment [1] and in experiment [2] was below 0.1 µM in each case.
Regarding `COc1cnccc1-c1cccc(C(NS(=O)(=O)c2ccccc2C(F)(F)F)c2ccccc2)c1` (stereo not drawn) [Compound 1CC], the EC50 in experiment [1] and in experiment [2] was 0.1 to 0.999 µM each time.
On to `Cc1ccccc1S(=O)(=O)N(CCCC(=O)NCCS(=O)(=O)O)[C@@H](C)c1cccc(-c2ccncc2O)c1` [Compound 22AA, (S)-2-(4-(N-(1-(3-(3-hydroxypyridin-4-yl)phenyl)ethyl)-2-methylphenylsulfonamido)butanamido)ethanesulfonic acid], for which the concentration for a half-maximal effect (EC50) in experiment [1] lay within 1 to 30 µM; in experiment [2], 0.1 to 0.999 µM.
Consider `Cc1cnccc1-c1cccc(C2(NS(=O)(=O)c3cccc(Cl)c3C)COC2)c1` [Compound 7AC, 3-chloro-2-methyl-N-(3-(3-(3-methylpyridin-4-yl)phenyl)oxetan-3-yl)benzenesulfonamide], for which the 50% effective concentration (EC50) in experiment [1] and in experiment [2] was below 0.1 µM each time.
Take `Cc1cnccc1-c1cccc([C@H](C)N(CCCC(=O)NCCOCCOCCOCCC(=O)O)S(=O)(=O)c2cccc(Cl)c2C)c1` [Compound 20AU, (S)-3-((3-chloro-2-methylphenyl)sulfonyl)-2-(3-(3-methylpyridin-4-yl)phenyl)-7-oxo-11,14,17-trioxa-3,8-diazaicosan-20-oic acid]: the half-maximal effective concentration (EC50) in experiment [1] is 0.1 to 0.999 µM; in experiment [2] it was below 0.1 µM.
For `CCc1cnccc1-c1cccc(C2CN(C(=O)CN(C)CC(=O)O)CCN2S(=O)(=O)c2cccc(Cl)c2C)c1` (stereo not drawn) [Compound 46AC, 2-((2-(4-((3-chloro-2-methylphenyl)sulfonyl)-3-(3-(3-ethylpyridin-4-yl)phenyl)piperazin-1-yl)-2-oxoethyl)(methyl)amino)acetic acid], in that order: below 0.1 µM and below 0.1 µM.
Take `CCc1cnccc1-c1cc(OC)cc(C(C)(C)NS(=O)(=O)c2ccccc2C(F)(F)F)c1` [Compound 2CD]: the concentration for a half-maximal effect (EC50) in experiment [1] and in experiment [2] was 0.1 to 0.999 µM throughout.
In the case of `CCc1cnccc1-c1cccc([C@H](C)N(CCCC(=O)NCS(=O)(=O)O)S(=O)(=O)c2cccc(Cl)c2C)c1` [Compound 21AR, (S)-(4-(3-chloro-N-(1-(3-(3-ethylpyridin-4-yl)phenyl)ethyl)-2-methylphenylsulfonamido)butanamido)methanesulfonic acid], the EC50 in experiment [1] and in experiment [2] was below 0.1 µM throughout.
With `Cc1c(Cl)cccc1S(=O)(=O)N[C@@H](C)c1cccc(-c2ccnnc2)c1` [Compound 1BP], the EC50 in experiment [1] was in the range of 1 to 30 µM; in experiment [2] it was 0.1 to 0.999 µM.
Consider `Cc1cnccc1-c1cccc([C@H](C)N(CCOCC(=O)NCCS(=O)(=O)O)S(=O)(=O)c2cccc(Cl)c2C)c1` [Compound 21AO, (S)-2-(2-(2-(3-Chloro-2-methyl-N-(1-(3-(3-methylpyridin-4-yl)phenyl)ethyl)phenylsulfonamido)ethoxy)acetamido)ethanesulfonic acid], for which the EC50 in experiment [1] and in experiment [2] was 0.1 to 0.999 µM each time.
For the compound `Cc1cnccc1-c1cccc(C(C)(C)N(CCCC(=O)NCCN(C)C)S(=O)(=O)c2cccc(Cl)c2C)c1` [Compound 21AD, 4-(3-chloro-2-methyl-N-(2-(3-(3-methylpyridin-4-yl)phenyl)propan-2-yl)phenylsulfonamido)-N-(2-(dimethyl-amino)ethyl)butanamide], the EC50 in experiment [1] is 0.1 to 0.999 µM; in experiment [2], below 0.1 µM.
For `Cc1cnccc1-c1cccc(C(C)(C)N(CCCNS(=O)(=O)CCNC(=O)NCCCS(=O)(=O)O)S(=O)(=O)c2cccc(Cl)c2C)c1` [Compound 28AE, 3-(3-(2-(N-(3-((3-chloro-2-methyl-N-(2-(3-(3-methylpyridin-4-yl)phenyl)-propan-2-yl)phenyl)sulfonamido)-propyl)sulfamoyl)ethyl)ureido)propane-1-sulfonic acid], the results for the EC50 in experiment [1] and in experiment [2] were 0.1 to 0.999 µM and below 0.1 µM, respectively.
Regarding `Cc1cnccc1-c1cccc([C@H](C)N(CCCCN)S(=O)(=O)c2ccccc2C(F)(F)F)c1` [Compound 24, (S)—N-(4-aminobutyl)-N-(1-(3-(3-methylpyridin-4-yl)phenyl)ethyl)-2-(trifluoromethyl)Benzenesulfonamide], the EC50 in experiment [1] is 1 to 30 µM; in experiment [2], below 0.1 µM.
For `Cc1cnccc1-c1cccc(C(CCC#N)NS(=O)(=O)c2ccccc2C(F)(F)F)c1` (stereo not drawn) [Compound 6AD, N-(3-cyano-1-(3-(3-methylpyridin-4-yl)phenyl)-propyl)-2-(trifluoromethyl)benzenesulfonamide], in that order: 0.1 to 0.999 µM and below 0.1 µM.
